Measured values from patent US8530701B2, “High purity 2-[4-(3- OR 2-fluorobenzyloxy)benzylamino]propanamides and methods of use thereof” (priority 2007, dated 2013).
Like-named read-outs stand apart in the source and are kept apart here. Each block holds one compound with its values, some of them ahead of it.

Assays:
CYP2C9 = molecular target: T1, CYP2C9 (Homo sapiens, UniProt P11712); assay: Cytochrome P450 assay (Gentest Kit), CYP2C9; type: in vitro ADME
T1 construct: purchased Gentest
Experimental: (§1) Inhibition of the five most important Cytochrome P450 isoforms (CYP1A2, CYP2C9, CYP2C19, CYP2D6 and CYP3A4), involved in drug metabolism, was measured using specific substrates that become fluorescent upon CYP metabolism (Gentest Kit assay).
(§2) Compounds were tested in a 96-well plate containing incubation/NADPH regenerating buffer. Specific human recombinant isoenzymes and substrates were added and incubated at 37° C. for 15 min for CYP1A2/CEC, 40 min for CYP2E1/MFC, 45 min for CYP2C9/MFC and 30 min for the others CYP450.
(§3) The specific substrates were the following: 3-cyano-7-ethoxycoumarin (CYP2C19 and CYP1A2), • 7-methoxy-4-trifluoromethylcoumarin (CYP2C9), • 3[2(N,N-diethyl-N-methylamino)ethyl]-7-methoxy-4-methylcoumarin (CYP2D6) • benzylphenylcoumarin (CYP3A4)

CYP3A4 = molecular target: T2, CYP3A4 (Homo sapiens, UniProt P08684); assay: Cytochrome P450 assay (Gentest Kit), CYP3A4; type: in vitro ADME
T2 construct: purchased Gentest
T2 sequence (P08684 whole entry): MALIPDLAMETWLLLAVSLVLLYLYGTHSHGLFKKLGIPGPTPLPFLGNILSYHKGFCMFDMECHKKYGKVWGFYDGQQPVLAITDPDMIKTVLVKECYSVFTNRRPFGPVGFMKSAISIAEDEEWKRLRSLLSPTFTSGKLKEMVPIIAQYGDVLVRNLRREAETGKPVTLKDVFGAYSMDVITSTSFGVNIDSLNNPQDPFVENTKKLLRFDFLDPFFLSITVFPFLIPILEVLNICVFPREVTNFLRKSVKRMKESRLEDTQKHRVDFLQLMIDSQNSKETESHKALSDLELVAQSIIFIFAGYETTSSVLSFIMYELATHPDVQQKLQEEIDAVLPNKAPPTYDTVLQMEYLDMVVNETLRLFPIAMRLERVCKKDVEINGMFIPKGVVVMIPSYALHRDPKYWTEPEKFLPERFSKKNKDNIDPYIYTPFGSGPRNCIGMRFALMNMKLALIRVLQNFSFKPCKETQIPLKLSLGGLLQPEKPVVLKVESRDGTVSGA
Experimental: as §1, §2, §3

CYP2C19 = molecular target: T3, CYP2C19 (Homo sapiens, UniProt P33261); assay: Cytochrome P450 assay (Gentest Kit), CYP2C19; type: in vitro ADME
T3 construct: purchased Gentest
T3 sequence (P33261 whole entry): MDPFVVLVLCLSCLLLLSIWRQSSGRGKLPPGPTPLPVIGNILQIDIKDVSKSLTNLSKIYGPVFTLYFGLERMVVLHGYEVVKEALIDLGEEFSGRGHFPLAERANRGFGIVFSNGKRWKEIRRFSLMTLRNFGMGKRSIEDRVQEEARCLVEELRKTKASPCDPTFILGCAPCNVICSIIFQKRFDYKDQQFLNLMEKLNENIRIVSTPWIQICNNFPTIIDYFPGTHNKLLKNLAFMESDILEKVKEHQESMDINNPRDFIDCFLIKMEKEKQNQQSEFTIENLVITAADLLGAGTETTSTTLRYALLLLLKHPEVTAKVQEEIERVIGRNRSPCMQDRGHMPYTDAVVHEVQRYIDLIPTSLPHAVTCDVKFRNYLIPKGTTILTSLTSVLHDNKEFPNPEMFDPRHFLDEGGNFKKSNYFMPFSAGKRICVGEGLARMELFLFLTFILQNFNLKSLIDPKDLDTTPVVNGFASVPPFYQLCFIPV
Experimental: as §1, §2, §3

CYP2D6 = molecular target: T4, CYP2D6 (Homo sapiens, UniProt P10635); assay: Cytochrome P450 assay (Gentest Kit), CYP2D6; type: in vitro ADME
T4 construct: purchased Gentest
T4 sequence (P10635 whole entry): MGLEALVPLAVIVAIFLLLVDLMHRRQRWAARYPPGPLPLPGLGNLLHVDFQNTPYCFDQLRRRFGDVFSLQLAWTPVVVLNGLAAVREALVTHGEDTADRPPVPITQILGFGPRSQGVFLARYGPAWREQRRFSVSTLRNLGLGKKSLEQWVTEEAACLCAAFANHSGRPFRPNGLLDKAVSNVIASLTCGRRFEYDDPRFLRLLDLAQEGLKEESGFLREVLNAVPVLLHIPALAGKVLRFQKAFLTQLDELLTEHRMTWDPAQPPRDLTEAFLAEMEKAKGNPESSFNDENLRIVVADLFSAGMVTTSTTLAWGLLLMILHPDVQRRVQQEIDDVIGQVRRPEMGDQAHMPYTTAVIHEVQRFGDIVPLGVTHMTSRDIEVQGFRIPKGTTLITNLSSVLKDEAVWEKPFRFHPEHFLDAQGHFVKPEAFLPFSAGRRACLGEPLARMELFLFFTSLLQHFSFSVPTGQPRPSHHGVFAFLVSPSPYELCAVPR
Experimental: as §1, §2, §3

recombinant HERG channel [1] = molecular target: T5, recombinant HERG channel (Homo sapiens, UniProt Q12809)
T5 sequence (Q12809 whole entry): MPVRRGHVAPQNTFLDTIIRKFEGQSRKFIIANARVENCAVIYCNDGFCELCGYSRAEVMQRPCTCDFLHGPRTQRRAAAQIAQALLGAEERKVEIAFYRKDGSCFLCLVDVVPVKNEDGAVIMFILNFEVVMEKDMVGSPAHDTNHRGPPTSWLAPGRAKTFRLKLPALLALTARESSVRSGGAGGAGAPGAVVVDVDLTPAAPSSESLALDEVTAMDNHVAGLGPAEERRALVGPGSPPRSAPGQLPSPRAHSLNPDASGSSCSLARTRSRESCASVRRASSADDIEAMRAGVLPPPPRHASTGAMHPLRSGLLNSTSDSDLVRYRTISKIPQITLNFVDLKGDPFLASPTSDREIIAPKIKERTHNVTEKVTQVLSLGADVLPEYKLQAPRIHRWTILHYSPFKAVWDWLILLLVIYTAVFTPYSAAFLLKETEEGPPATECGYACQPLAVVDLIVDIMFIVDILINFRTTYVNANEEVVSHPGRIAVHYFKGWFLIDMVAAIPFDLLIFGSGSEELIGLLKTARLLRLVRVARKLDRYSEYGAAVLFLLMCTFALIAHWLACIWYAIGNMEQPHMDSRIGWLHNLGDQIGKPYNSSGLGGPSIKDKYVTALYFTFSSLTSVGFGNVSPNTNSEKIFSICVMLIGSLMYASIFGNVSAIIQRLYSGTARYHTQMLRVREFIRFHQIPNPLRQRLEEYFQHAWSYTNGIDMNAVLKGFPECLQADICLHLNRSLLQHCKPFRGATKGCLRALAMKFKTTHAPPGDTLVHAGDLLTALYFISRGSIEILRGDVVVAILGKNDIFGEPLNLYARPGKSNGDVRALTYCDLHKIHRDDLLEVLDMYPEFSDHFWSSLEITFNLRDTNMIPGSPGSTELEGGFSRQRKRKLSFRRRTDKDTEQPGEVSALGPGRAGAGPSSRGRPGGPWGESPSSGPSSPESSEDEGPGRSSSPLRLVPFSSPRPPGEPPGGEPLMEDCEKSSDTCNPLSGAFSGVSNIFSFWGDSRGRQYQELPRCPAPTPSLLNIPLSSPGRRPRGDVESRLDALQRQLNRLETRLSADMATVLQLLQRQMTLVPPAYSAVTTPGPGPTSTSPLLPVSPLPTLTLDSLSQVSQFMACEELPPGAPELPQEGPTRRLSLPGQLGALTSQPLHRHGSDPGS
Experimental: (§10) The inhibition of HERG current was tested in CHO cells stably expressing recombinant HERG channel.
(§11) To evaluate the effect of the test compounds on HERG currents, cells were clamped at −80 mV, depolarised to 0 mV for 5 seconds allowing activation of HERG current and repolarised to −50 mV during 5 seconds allowing HERG tail current to deactivate. This procedure was repeated at a frequency of 0.06 Hz. The current amplitude upon repolarisation (HERG tail current) was measured before and after exposure to the test compound.
(§12) Inhibition of current was calculated as the difference between the amplitude of HERG tail current amplitude measured at the end of external bath perfusion period and HERG tail current measured at the end of test compound perfusion period (when steady-state effect is reached) divided by control HERG tail current.
(§13) Drug concentration-inhibition curves were obtained by plotting tonic blocks versus drug concentrations. Dose-response curves were fitted to the tonic block data, according to the logistic equation: y=A2+(A1−A2)/[1+(x/IC50)^p].

CYP1A2 = molecular target: T6, CYP1A2 (Homo sapiens, UniProt P05177); assay: in vitro; type: in vitro ADME
T6 construct: purchased Gentest
T6 sequence (P05177 1-516): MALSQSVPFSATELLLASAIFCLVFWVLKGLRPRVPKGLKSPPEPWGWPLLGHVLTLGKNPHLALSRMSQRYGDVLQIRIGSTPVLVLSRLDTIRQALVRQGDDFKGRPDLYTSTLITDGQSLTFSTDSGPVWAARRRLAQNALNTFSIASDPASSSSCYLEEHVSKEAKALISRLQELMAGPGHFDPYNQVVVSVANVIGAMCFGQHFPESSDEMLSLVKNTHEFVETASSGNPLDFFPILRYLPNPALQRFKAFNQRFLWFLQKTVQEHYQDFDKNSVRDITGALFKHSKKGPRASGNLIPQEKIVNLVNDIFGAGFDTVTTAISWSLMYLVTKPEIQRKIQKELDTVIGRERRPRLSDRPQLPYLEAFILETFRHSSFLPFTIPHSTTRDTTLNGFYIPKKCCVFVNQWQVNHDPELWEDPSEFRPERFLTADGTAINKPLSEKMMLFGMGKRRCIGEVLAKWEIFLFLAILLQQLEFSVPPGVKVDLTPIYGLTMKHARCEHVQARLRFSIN
Experimental: as §1, §2, §3

[2] = test system: human neuroblastoma cell line SH-SY-5Y; assay: Cytotoxicity assay in human neuroblastoma cell line SH-SY-5Y; type: cell-based
Experimental: (§4) At time zero, the cells were seeded at 1.10^4/cm^2 in 96 well plates in DMEM growth medium+10% heat inactivated FBS+2 mM 1-Glutamine+100 U/mL-100 μg/mL Penicillin/Streptomycin.
(§5) After 72 hours at subconfluent phase of growth, the medium was removed and cells were incubated for 24 hours at 37° C. in 180 μL of neurobasal medium+2 mM 1-Glutamine (Life Techonologies) with or without test compounds (20 μL, at least 5 concentrations in triplicate).
(§6) At the end of incubation, 20 μL of Alamar Blue dye (AlamarBlue™ Assay Kit, Promega) were directly added to the cell medium.
(§7) Four hours after, the cytotoxicity was assessed by measuring the fluorescence at 530 nm excitation and 595 nm emission using Tecan Spectrafluor plate reader.
(§8) Before and at the end of the treatment, the cultures were monitored microscopically by an Olympus IX70 inverted light microscope matched to an Image Analyzer (Image Pro Plus, 5.1) to evaluate the cellular morphology.
(§9) Results are expressed in Table 1 as concentration inducing 50% of mortality.

Male CD1 mice = type: in vivo
Experimental: The maximal electroshock test (MES) is used commonly in the screening of anti-epileptic drugs in rodent models.
Animals and Apparatus: Male CD1 mice weighing 25 g were used. […] The stimulus was delivered intra-aurally through clip electrodes in mice (0.7 seconds of a 40 mA shock, with a pulse train of 80 Hz having a pulse duration of 0.4 ms). The acute effect of compounds administered intraperitoneally or orally 15-60 min before MES induction were examined and compared with a vehicle control group. Ten mice were studied per group. Complete suppression of the hindlimb tonic extensor component of seizures was taken as evidence of anticonvulsant activity.
The compounds of the invention were administered orally or intraperitoneally at the doses of 3-30 mg/kg.
The results are expressed in Tables 3 and 4 as % of protection.

[3] = Cytotoxicity assay in human neuroblastoma cell line SH-SY-5Y; type: cell-based; conditions: human, SH-SY-5Y neuroblastoma cells; SH-SY-5Y, 24 hours incubation, Alamar Blue; concentration inducing 50% of mortality
Experimental: as §4, §5, §6, §7, §8, §9

recombinant HERG channel [4] = molecular target: T5, recombinant HERG channel; assay: HERG current in transfected CHO cell lines
Experimental: as §10, §11, §12, §13

[5] = human recombinant isoenzyme, substrate 7-methoxy-4-trifluoromethylcoumarin, read-out: CYP2C9 IC50
[6] = Table 1, human recombinant isoenzyme, substrate benzylphenylcoumarin, read-out: CYP3A4 IC50
[7] = human recombinant isoenzyme, substrate 3-cyano-7-ethoxycoumarin, read-out: CYP2C19 IC50
[8] = human recombinant isoenzyme, fluorescent substrate, read-out: CYP2D6 IC50

T1 sequence (P11712 whole entry): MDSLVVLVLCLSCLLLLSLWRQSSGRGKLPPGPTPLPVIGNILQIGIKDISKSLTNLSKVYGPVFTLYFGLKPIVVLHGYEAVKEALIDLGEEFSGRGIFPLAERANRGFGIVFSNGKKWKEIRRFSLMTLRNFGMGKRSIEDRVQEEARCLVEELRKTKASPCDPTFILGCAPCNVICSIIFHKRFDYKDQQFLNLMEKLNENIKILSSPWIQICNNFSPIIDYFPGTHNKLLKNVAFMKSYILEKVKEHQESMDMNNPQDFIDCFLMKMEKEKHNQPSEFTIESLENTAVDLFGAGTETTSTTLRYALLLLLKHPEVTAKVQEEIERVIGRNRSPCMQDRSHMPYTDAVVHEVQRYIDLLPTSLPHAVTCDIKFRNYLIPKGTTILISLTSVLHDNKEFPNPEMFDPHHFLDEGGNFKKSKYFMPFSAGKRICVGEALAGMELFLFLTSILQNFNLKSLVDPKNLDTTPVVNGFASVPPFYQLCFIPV

SMILES: CS(=O)(=O)O.C[C@H](NCc1ccc(OCc2cccc(F)c2)c(Cc2cccc(F)c2)c1)C(N)=O [Impurity (IIc), (S)-2-[3-(3-fluorobenzyl)-4-(3-fluorobenzyloxy)-benzylamino]propanamide methanesulfonate]
- MES dead/live (Male CD1 mice; mice, 3 mg/kg ip): 5/10
- MES dead/live (Male CD1 mice; mice, 10 mg/kg ip): 4/10
- MES dead/live (Male CD1 mice; mice, 30 mg/kg ip): 4/10
- pharmacological activity, i.e. protection from convulsions, in MES test (in words) (Male CD1 mice; mice, ip, from 3 mg/kg): without any pharmacological activity
- mortality in the mice MES test (in words) (Male CD1 mice; starting from 3 mg/kg ip): increases

SMILES: CS(=O)(=O)O.C[C@H](NCc1ccc(OCc2ccccc2F)c(Cc2ccccc2F)c1)C(N)=O [Impurity (IId), (S)-2-[3-(2-fluorobenzyl)-4-(2-fluorobenzyloxy)-benzylamino]propanamide methanesulfonate]
- MES dead/live (Male CD1 mice; mice, 10 mg/kg p.o.): 0/10
- MES dead/live (Male CD1 mice; mice, 20 mg/kg p.o.): 0/10
- protection of mice from convulsions in MES test (in words) (Male CD1 mice; p.o. at 10 and 20 mg/kg, compared with same doses of ralfinamide methanesulfonate): doesn't protect mice from convulsions

SMILES: CS(=O)(=O)O.C[C@H](NCc1ccc(OCc2cccc(F)c2)cc1)C(N)=O [Safinamide methanesulfonate (Ic), (S)-2-[4-(3-fluorobenzyloxy)benzylamino]propanamide methanesulfonate, reference compound]
- MES % protection (Male CD1 mice; mice, 3 mg/kg ip): 50%
- MES % protection (Male CD1 mice; mice, 10 mg/kg ip): 100%
- MES % protection (Male CD1 mice; mice, 30 mg/kg ip): 100%

Continued, in another order:

- IC50 (CYP2C9): 5570 nM
- IC50 (CYP3A4): 60 nM
- IC50 (CYP2C19): 170 nM
- IC50 (CYP2D6): 310 nM
- IC50 (CYP1A2): 28000 nM
SMILES: C[C@@H](NCc1ccc(OCc2cccc(F)c2)c(Cc2cccc(F)c2)c1)C(N)=O (racemic) [Impurity (IIc, II′c), (R,S)-2-[3-(3-fluorobenzyl)-4-(3-fluorobenzyloxy)-benzylamino]propanamide methanesulfonate]
- IC50 (recombinant HERG channel [1]): < 1000 nM
- IC50 [2]: 11800 nM

- IC50 (CYP2C9): 4960 nM
- IC50 (CYP3A4): 60 nM
- IC50 (CYP2C19): 30 nM
- IC50 (CYP2D6): 1190 nM
- IC50 (CYP1A2): 39400 nM
SMILES: C[C@@H](NCc1ccc(OCc2ccccc2F)c(Cc2ccccc2F)c1)C(N)=O (racemic) [Impurity (IId, II′d), (R,S)-2-[3-(2-fluorobenzyl)-4-(2-fluorobenzyloxy)-benzylamino]propanamide methanesulfonate]
- IC50 (recombinant HERG channel [1]): < 1000 nM
- IC50 [2]: 14300 nM

- IC50 (CYP2C9; [5]): 4940 nM
- IC50 (CYP3A4; [6]): 90 nM
- IC50 (CYP2C19; [7]): 150 nM
- IC50 (CYP2D6; [8]): 150 nM
- IC50 (CYP1A2; human recombinant isoenzyme, substrate 3-cyano-7-ethoxycoumarin, read-out: CYP1A2 IC50): 29200 nM
SMILES: C[C@@H](NCc1ccc(OCc2cccc(F)c2)c(Cc2cccc(F)c2)c1)C(N)=O [Impurity (II′c), (R)-2-[3-(3-fluorobenzyl)-4-(3-fluorobenzyloxy)-benzylamino]propanamide methanesulfonate]
- IC50 at 24 h [3]: 8810 nM
- IC50 (recombinant HERG channel [4]): < 1000 nM

- IC50 (CYP2C9; [5]): 4340 nM
- IC50 (CYP3A4; [6]): 70 nM
- IC50 (CYP2C19; [7]): 30 nM
- IC50 (CYP2D6; [8]): 620 nM
- IC50 at 15 min (CYP1A2; recombinant human CYP1A2, probe 3-cyano-7-ethoxycoumarin, human recombinant isoenzyme, substrate 3-cyano-7-ethoxycoumarin): > 40000 nM
SMILES: C[C@@H](NCc1ccc(OCc2ccccc2F)c(Cc2ccccc2F)c1)C(N)=O [Impurity (II′d), (R)-2-[3-(2-fluorobenzyl)-4-(2-fluorobenzyloxy)-benzylamino]propanamide methanesulfonate]
- IC50 at 24 h [3]: 11500 nM
- IC50 (recombinant HERG channel [4]): < 1000 nM
